Assay results: US10947188B2, “Small molecule ferroptosis inducers” (THE TRUSTEES OF COLUMBIA UNIVERSITY IN THE CITY OF NEW YORK, priority 2016, dated 2021)
In brackets after ≈: the same amount, converted by molar mass.

Tested on: HT-1080 cells
Experiment: Lethality of commercially available CIL41/70 structural analogs
Type: cell-based
Settings: Homo sapiens, tested once in technical triplicates
Protocol: 1,000 cells per 36 μl were seeded in each well in 384-well plates. Lethal compounds were dissolved, and a twofold, 12-point dilution series was prepared in DMSO. Compound solutions were further diluted with media at 1:25, and 4 μl per well of the diluted solutions was added to cell cultures immediately after cells were seeded. […] When other cell-death-modulating compounds (100 nM sodium selenite, 1 μM cerivastatin, 100 μg/mL mevalonic acid) were used in cotreatments, they were supplemented to cell culture for 24 h before lethal compounds were added to cell culture, after which cells were further incubated for 24 h at 37° C. under 5% CO2. On the day of the viability measurement, we added 10 μl per well of 50% Alamar Blue diluted in media (Life Technologies) and further incubated the cells at 37° C. for 6 h. Fluorescence intensity (excitation/emission: 530/590) was measured with a Victor 3 plate reader (PerkinElmer), and the normalized viability was calculated as VL=(IL−I0)/(IV−I0), where VL, I0, IV, and IL are the normalized viability and the raw fluorescence intensities from the wells containing media, cells treated with a vehicle (negative control), and cells with the lethal compound (L), respectively. When the effect of a chemical modulator (M) on L was calculated, we instead used the equation VL|M=(IM,L−I0)/(IM,V−I0), where VL|M, IM,L and IM,V are the normalized viability, and fluorescence intensity from cells treated with […], respectively. The viability was typically measured in biological triplicate unless otherwise specified. A representative dose-response curve, the mean and standard error of normalized viability from one replicate were plotted. HT-1080 viability after modulator treatments corresponding to FIG. 3C and FIGS. 5E-5F is available in FIGS. 19A-19C.
Their lethality was tested once in HT-1080 cells in technical triplicates.

SMILES	EC50 [µg/mL]
COc1ccc(C[C@@H](N)NOC(=O)C(c2ccccc2)c2ccccc2)cc1OC [CB54]	> 20
N/C(Cc1ccc(Cl)cc1)=N\OC(=O)CCc1ccccc1 [CB55]	> 20
N/C(Cc1ccc([N+](=O)[O-])cc1)=N\OC(=O)C(c1ccccc1)c1ccccc1 [CB56]	4.05 (≈ 10.4 µM)
N[C@H](Cc1ccc([N+](=O)[O-])cc1)NOC(=O)COc1ccc2ccccc2c1 [CB57]	> 20
N/C(Cc1ccc(Cl)cc1)=N\OC(=O)C1CCCCC1 [CB58]	17.6 (≈ 59.7 µM)
COc1ccc(CC(=O)O/N=C(\N)Cc2ccc(Cl)cc2Cl)cc1OC [CB59]	> 20
COc1ccc(C/C(N)=N/OC(=O)Cc2ccc(OC)c(OC)c2)cc1 [CB60]	> 20
COc1ccccc1C/C(N)=N/OC(=O)COc1ccc2ccccc2c1 [CB61]	> 20
COc1ccccc1C/C(N)=N/OC(=O)/C=C/c1ccccc1 [CB62]	8.63 (≈ 27.8 µM)
COc1ccc(C/C(N)=N/OC(=O)CCc2ccccc2)cc1 [CB63]	> 20
COc1ccc(CC(=O)O/N=C(\N)Cc2cccc3ccccc23)cc1OC [CB64]	> 20
COc1ccc(C/C(N)=N/OC(=O)Cc2ccccc2)cc1OC [CB65]	> 20
COc1ccc(C/C(N)=N/OC(C)=O)cc1OC [CB66]	> 20
N/C(Cc1ccc([N+](=O)[O-])cc1)=N\OC(=O)COc1ccccc1Cl [CB67]	> 20
N/C(Cc1cccs1)=N\OC(=O)COc1ccccc1Cl [CB68]	> 20
N/C(Cc1cccs1)=N\OC(=O)C12CC3CC(CC(C3)C1)C2 [CB69]	2.09 (≈ 6.56 µM)
Cc1cc(OCC(=O)O/N=C(\N)Cc2ccc([N+](=O)[O-])cc2)ccc1Cl [CB71]	> 20
COc1ccc(OCC(=O)O/N=C(\N)Cc2ccc(Cl)cc2Cl)cc1 [CB72]	> 20
N/C(Cc1cccc2ccccc12)=N\OC(=O)COc1ccccc1Cl [CB73]	> 20
COc1ccc(OCC(=O)O/N=C(\N)Cc2cccs2)cc1 [CB74]	> 20
N/C(Cc1cccs1)=N\OC(=O)COc1ccc(Cl)cc1Cl [CB75]	> 20
N/C(Cc1ccc([N+](=O)[O-])cc1)=N\OC(=O)COc1ccc(Br)cc1Cl [CB76]	> 20

SMILES	EC50 [µg/mL]
N/C(Cc1ccc([N+](=O)[O-])cc1)=N\OC(=O)CCCc1ccccc1 [CB77]	> 20
N/C(Cc1cccs1)=N\OC(=O)COc1ccc(Br)cc1Cl [CB78]	> 20
CCc1ccc(OCC(=O)O/N=C(\N)Cc2ccc([N+](=O)[O-])cc2)cc1 [CB79]	> 20
N/C(Cc1ccc([N+](=O)[O-])cc1)=N\OC(=O)Cc1ccccc1 [CB80]	> 20
CCc1ccc(OCC(=O)O/N=C(\N)Cc2cccc3ccccc23)cc1 [CB81]	> 20
CC(Oc1ccc(Cl)cc1Cl)C(=O)O/N=C(\N)Cc1ccc([N+](=O)[O-])cc1 (centres unmarked) [CB82]	> 20
N/C(Cc1ccc([N+](=O)[O-])cc1)=N\OC(=O)CC1CCCCC1 [CB83]	> 20
COc1ccc(CC(=O)O/N=C(\N)Cc2ccc(OC)cc2)cc1 [CB84]	> 20
N/C(Cc1cccc2ccccc12)=N\OC(=O)CC1CCCCC1 [CB85]	> 20
COc1ccc(CC(=O)C/N=C(\N)Cc2cccc3ccccc23)cc1 [CB86]	> 20
Cc1ccc(OCC(=O)O/N=C(\N)Cc2ccc(Cl)cc2Cl)cc1C [CB87]	> 20
CC(C)c1ccc(OCC(=O)O/N=C(\N)Cc2ccc(Cl)cc2Cl)cc1 [CB88]	> 20
Cc1ccc(OCC(=O)O/N=C(\N)Cc2cccc3ccccc23)cc1C [CB89]	> 20
CC(C)c1ccc(OCC(=O)O/N=C(\N)Cc2cccc3ccccc23)cc1 [CB90]	> 20
COc1ccc(C/C(N)=N/OC(=O)COc2ccc(C)c(C)c2)cc1 [CB91]	> 20
Cc1ccc(OCC(=O)O/N=C(\N)Cc2ccc([N+](=O)[O-])cc2)cc1C [CB92]	> 20
CC(C)c1ccc(OCC(=O)O/N=C(\N)Cc2ccc([N+](=O)[O-])cc2)cc1 [CB93]	> 20
Cc1ccc(OCC(=O)ON[C@H](N)Cc2cccs2)cc1C [CB94]	> 20
Cc1cc(OCC(=O)O/N=C(\N)Cc2ccc([N+](=O)[O-])cc2)cc(C)c1Br [CB95]	> 20
N/C(Cc1ccc([N+](=O)[O-])cc1)=N\OC(=O)CCC1CCCCC1 [CB96]	> 20
COc1ccccc1CC(=O)O/N=C(\N)Cc1ccc(Cl)cc1Cl [CB97]	> 20
CCC(C(=O)O/N=C(\N)Cc1ccc(Cl)cc1Cl)c1ccccc1 (centres unmarked) [CB98]	4.46 (≈ 12.2 µM)
